# Source: article PMC12525849, “In Silico and RP HPLC Studies of Biologically Active 1,3,4-Thiadiazol-2-yl)-benzene-1,3-diols” (Molecules, 2025)
# Where two headings read alike, the source gives them in different places.
# Experiments:
# [1] = Comparison of retention (log kw) on RP-18, RP-8, Chol, IAM and BPh stationary phases; format: physicochemical; conditions: for retention, in words: investigated stationary phases
# Text: (§1) The retention factors of considered compounds were investigated using five different bonded stationary phases: octadecyl (RP-18), octyl (RP-8), cholesterol (Chol), phosphatidylcholine (IAM), and biphenyl (BPh). Water buffer–methanol mobile phases with pH 7.4 were used. The content of MeOH was varying and it depended on the type of compound and the stationary phase.
# The lowest log kw values can be observed for RP-18 and IAM stationary phases. For most compounds, log kw IAM values have similar values or are lower than those obtained for C18 stationary phase. […] On the octadecyl column the main contribution to retention comes from almost entirely hydrophobic interactions, when in the case of IAM phase there are additional mechanisms involved in interactions as ion pairing and hydrogen bonding. They can be either attractive or repulsive in nature. This depends on the structure of compound and pH.
# (§2) HPLC measurements for C-18, C-8, IAM, Chol, and BPh phases were carried out using a liquid chromatograph Knauer (Knauer, Berlin, Germany) with a single pump working in isocratic mode, a 20 µL simple injection valve, and a UV–visible detector (Knauer, Berlin, Germany) working at 280 nm at room temperature. The retention time of an unretained solute (t0) was determined by the injection of a small amount of citric acid dissolved in water. The mobile phase flow rate was 1 mL/min (0.35 mL/min for Chol). HPLC columns: C18—Eurosil Bioselect 300 × 4 mm, 5 μm; C8—Waters. Symetry 150 × 4.6 mm, 5 μm, 100 Ǻ; IAM—Rexchrom IAM.PC.DD2 100 × 4.6 mm, 12 μm; Chol—Cogent 4 UDC Cholesterol 150 × 2.1 mm, 4 μm; BPh—Kinetex Biphenyl 150 × 4.6 mm, 5 μm were applied.
# (§3) Mobile phase for RP-18, RP-8, Chol, and BPh chromatography was composed using 20 mM acetic buffer/MeOH with respective MeOH concentration ranges (volume fractions: C18—from 0.5 to 0.99; C8—from 0.5 to 0.9; IAM—from 0.15 to 0.5; Chol: from 0.45 to 0.9; BPh: from 0.4 to 0.99) to obtain pH = 7.4. In the case of IAM chromatography, phosphate buffer was used. At least five consecutive retention times for five concentrations per every investigated compound for every chromatographic system were measured. Log k parameter was calculated as log k = log (tr−t0/t0), where tr = the retention time of the analyte; t0 = the retention time of an unretained compound.
# [2] = Log D(7.4) determination from RP-18 measurements using a standard curve; format: physicochemical; conditions: C18 (RP-18) HPLC column with MeOH-water mobile phase; calculated from standard curve (Equation 3) and log kw C18, pH 7.4
# Text: C-18 chromatography was used to determine the distribution coefficient log D(7.4) of the tested compounds using a standard curve. It was constructed for the reference compounds with known experimental log D(7.4) values and studied chromatographically under the same conditions as the analyzed compounds [44] (Table 4). The obtained log kw values were plotted against the log D(7.4) based on BioLoom Database values taken from Andres et al. (Table S6 in the Supplementary Materials). […] In the case of analogues 7 and 14, these differences are the largest and they constitute about 17% and 13%, respectively (Table 4). This means that the obtained log kw values from the C18/MeOH-water (pH = 7.4) chromatographic system reflect the extraction values of log D(7.4) quite well. […] The analytical standards were purchased from Sigma Aldrich […], Darmstadt, Germany). The obtained log kw values from HPLC C-18 were plotted against the log D(7.4) based on BioLoom Database values taken from Andres et al. (Table S6 in the Supplementary Materials).
# [3] = RP HPLC on octadecyl (C-18/RP-18) column, buffer-MeOH pH 7.4, log kw by extrapolation; format: physicochemical; conditions: C18 stationary phase; for log kw C-18: MeOH-buffer pH 7.4, extrapolated intercept; for S: slope of log k vs MeOH content, pH 7.4
# Text: as §1
# For the tested systems, linear relationships were obtained between the retention coefficient log k and the content of MeOH (%) in the mobile phase expressed by the Snyder–Soczewiński equation:log k = log kw + S (% organic modifier)(2) where: log kw—the intercept; S—the slope of regression curve.
# Log kw values were estimated by the extrapolation method. Log kw and S parameters are presented in Figure 3, Table 2, and Tables S1–S5 in the Supplementary Materials. These parameters obtained by C-18, C-8, and IAM chromatography are commonly used as lipophilicity descriptors.
# as §2, §3
# [4] = cited from earlier work
compound,measurement,setting,value
Oc1ccc(-c2nnc(-c3ccc(C(F)(F)F)cc3)s2)c(O)c1 [Compound 6],"retention, in words",[1],strongest retained
same,chromatographic logD,[2],4.06
same,log kw C-18,[3],3.69
same,S,[3],−4.696
Oc1ccc(-c2nnc(-c3ccc(O)c(O)c3)s2)c(O)c1 [Compound 7],"retention / determined lipophilicity, in words",[1]; all investigated stationary phases except IAM,weakest retention
same,chromatographic logD,[2],1.66
same,log kw C-18,[3],1.907
same,S,[3],−3.171
Oc1ccc(-c2nnc(-c3ccccc3Cl)s2)c(O)c1 [Compound 4],chromatographic logD,[2],2.69
same,log kw C-18,[3],2.67
same,S,[3],−3.651
Cc1cccc(-c2nnc(-c3ccc(O)cc3O)s2)c1 [Compound 2],chromatographic logD,[2],3.13
same,log kw C-18,[3],3
same,S,[3],−3.87
Oc1cc(O)c(-c2nnc(-c3ccc(OC(F)(F)F)cc3)s2)cc1Cl [Compound 10],"retention, in words",[1],strongest retained
same,chromatographic logD,[2],4.12
same,log kw C-18,[3],3.734
same,S,[3],−4.65
"CC(=O)N1CCN(c2ccc(OCC3COC(Cn4ccnc4)(c4ccc(Cl)cc4Cl)O3)cc2)CC1 (stereo not shown) [ketoconazole, reference compound]",log kw C-18,[3],3.370
Oc1cc(O)c(-c2nnc(Nc3ccc(F)cc3)s2)cc1Cl [Compound 13],chromatographic logD,[2],3.14
same,log kw C-18,[3],3.005
same,S,[3],−4.173
"C[C@]12CCC(=O)C=C1CC[C@@H]1[C@@H]2[C@@H](O)C[C@@]2(C)[C@H]1CC[C@]2(O)C(=O)CO [hydrocortisone, reference compound]",log kw C-18,[3],2.210
Cc1ccc(Nc2nnc(-c3ccc(O)cc3O)s2)cc1 [Compound 12],chromatographic logD,[2],3.11
same,log kw C-18,[3],2.986
same,S,[3],−4.168
O=[N+]([O-])c1cccc(-c2nnc(-c3ccc(O)cc3O)s2)c1 [Compound 9],"retention, in words",[1],relatively low retention factor values
same,chromatographic logD,[2],2.47
same,log kw C-18,[3],2.512
same,S,[3],−3.432
Oc1ccc(-c2nnc(Nc3cccc4ccccc34)s2)c(O)c1 [Compound 16],chromatographic logD,[2],3.21
same,log kw C-18,[3],3.059
same,S,[3],−3.931
"Cn1c(=O)c2c(ncn2C)n(C)c1=O [caffeine, reference compound]",log kw C-18,[3],0.802
CCOC(=O)c1ccc(Nc2nnc(-c3ccc(O)cc3O)s2)cc1 [Compound 15],chromatographic logD,[2],3.45
same,log kw C-18,[3],3.238
same,S,[3],−4.185
CCCCNc1nnc(-c2cc(Cl)c(O)cc2O)s1 [Compound 17],chromatographic logD,[2],2.83
same,log kw C-18,[3],2.78
COc1cc(-c2nnc(-c3ccc(O)cc3O)s2)ccc1O [Compound 8],"retention, in words",[1],relatively low retention factor values
same,chromatographic logD,[2],2.52
same,log kw C-18,[3],2.545
same,S,[3],−3.785
"O=C(CCCN1CCC(O)(c2ccc(Cl)cc2)CC1)c1ccc(F)cc1 [haloperidol, reference compound]",log D(7.4) Bio Loom,"[4]; standards used for calibration curve, BioLoom Database values taken from Andres et al. ref 44",2.92
same,log kw C-18,[3],3.012
"c1ccc2ccccc2c1 [naphthalene, reference compound]",log D(7.4) Bio Loom,[4]; pH 7.4,3.3
same,log kw C-18,[3],2.615
"Cn1c(=O)c2[nH]cnc2n(C)c1=O [theophylline, reference compound]",log kw C-18,[3],0.380
"CCN(CC)CC(=O)Nc1c(C)cccc1C [lidocaine, reference compound]",log kw C-18,[3],2.079
Oc1ccc(-c2nnc(Nc3ccccc3)s2)c(O)c1 [Compound 11],"retention, in words",[1],relatively low retention factor values
same,chromatographic logD,[2],2.42
same,log kw C-18,[3],2.477
same,S,[3],−3.66
Oc1ccc(-c2nnc(-c3ccc(Cl)cc3Cl)s2)c(O)c1 [Compound 5],chromatographic logD,[2],4.05
same,log kw C-18,[3],3.678
same,S,[3],−4.438
Oc1ccc(-c2nnc(-c3ccccc3)s2)c(O)c1 [Compound 1],chromatographic logD,[2],2.51
same,log kw C-18,[3],2.537
same,S,[3],−3.494
Oc1ccc(-c2nnc(COc3ccc(OC(F)(F)F)cc3)s2)c(O)c1 [Compound 18],"retention, in words",[1],strongest retained
same,chromatographic logD,[2],2.97
same,log kw C-18,[3],2.879
same,S,[3],−3.883
Oc1ccc(-c2nnc(-c3ccccc3F)s2)c(O)c1 [Compound 3],chromatographic logD,[2],3.13
same,log kw C-18,[3],3.002
same,S,[3],−3.885
CCc1cc(-c2nnc(Nc3ccc(Cl)cc3)s2)c(O)cc1O [Compound 14],"retention, in words",[1],strongest retained
same,chromatographic logD,[2],4.88
same,log kw C-18,[3],4.296
same,S,[3],−5.335
